Five molecules from US20020038028A1, “7-Hetero-bicyclo[2.2.1]-heptanes” (priority 1998, published 2002) can be followed below.

SMILES strings stand for the structures.

The term melting point denotes the temperature of the solid-liquid transition. For `CSc1ccc(C2CC3CCC2N3)cc1.Cl` (centres unmarked), the melting point was in the range of 216.5 to 218 °C. Turning to `Cl.Oc1ccc(C2CC3CCC2N3)cc1` (centres unmarked), the melting point lay within 242.5 to 244 °C. In the case of `Cl.N=C(N)c1ccc(C2CC3CCC2N3)cc1` (centres unmarked), the melting point fell in the range of 198.5 to 201 °C.

With `COC(=O)c1ccc(C2CC3CCC2N3)cc1.Cl` (centres unmarked), the melting point lay within 235 to 236 °C. In turn, `Cl.O=C(O)c1ccc(C2CC3CCC2N3)cc1` (centres unmarked) came in with a melting point of 261.5 to 264.5 °C.
